PubChem BioAssay (NCI)
Values joined by “and” are separate entries in the source; they are usually repeats but may differ in a detail not shown here. Identical values can stand only once.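 In this assay, cells in 96-well plates receive the compound at five concentrations for 48 hours. Endpoints are linearly interpolated between the surrounding concentrations. Here, GI50 denotes the concentration required for 50% inhibition of growth. At the TGI there is no net growth.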

Tests used:
Experiment in all cases: NCI anticancer screen, dose series, 48 h
A549 NSCLC = system: A549 NSCLC
CAKI-1 renal = system: CAKI-1 renal
HCT-116 colon = system: HCT-116 colon
HL-60(TB) leukemia = system: HL-60(TB) leukemia
IGROV1 ovarian = system: IGROV1 ovarian
MALME-3M melanoma = system: MALME-3M melanoma
MDA-MB-435 = system: MDA-MB-435
OVCAR-5 ovarian = system: OVCAR-5 ovarian
SF-268 CNS = system: SF-268 CNS
SF-539 CNS = system: SF-539 CNS

Structure (SMILES)	GI50 (A549 NSCLC) [µM]	TGI (A549 NSCLC)	GI50 (CAKI-1 renal) [µM]	TGI (CAKI-1 renal)	GI50 (HCT-116 colon)	TGI (HCT-116 colon)	GI50 (HL-60(TB) leukemia) [µM]	TGI (HL-60(TB) leukemia)	GI50 (IGROV1 ovarian) [µM]	TGI (IGROV1 ovarian)	GI50 (MALME-3M melanoma) [µM]	TGI (MALME-3M melanoma)	GI50 (MDA-MB-435) [µM]	TGI (MDA-MB-435) [µM]	GI50 (OVCAR-5 ovarian) [µM]	TGI (OVCAR-5 ovarian)	GI50 (SF-268 CNS) [µM]	TGI (SF-268 CNS)	GI50 (SF-539 CNS) [µM]	TGI (SF-539 CNS)
CCc1cc(Nc2nccc(-c3c(-c4ccc(OC)c(C(=O)Nc5c(F)cccc5F)c4)nc4ccccn34)n2)c(OC)cc1N1CCC(N2CCN(S(C)(=O)=O)CC2)CC1	> 48.3	> 100 µM	> 100	> 100 µM	88.8 µM	> 100 µM	> 100	> 100 µM	> 100	> 100 µM	> 100	> 100 µM	> 100	> 100	> 100	> 100 µM	> 100	> 100 µM	> 100	> 100 µM
Nc1cc2ccncc2c2ccccc12	18.9	> 100 µM	18.4	> 100 µM	4.85 µM	> 100 µM	20	61.9 µM	11.9	> 100 µM	15.7	31.4 µM	17.2	60	18.7	88.1 µM	11.1	52.5 µM	13.4	34 µM
CCCCCCCC(=O)O[C@H]1[C@H]2[C@@H](CC1(C)C)C(=O)[C@]13O[C@H]1C(=O)[C@]1(CO1)[C@]23C	22.5	38.2 µM and 63.6 µM	–	5.82 µM and 5.58 µM	3.07 µM and 1.63 µM	12.4 µM and 3.8 µM	0.381	4.57 µM and 2.04 µM	20.9	36.6 µM and 11.4 µM	–	10.9 µM and 6.34 µM	–	75	15.3	28.8 µM and 25.9 µM	8.17	23.1 µM and 16.2 µM	7.72	12.7 µM and 21.3 µM
Fc1ccc(-c2ncn(C3CCNCC3)c2-c2ccnc(Oc3ccc(Oc4ccccc4)cc3)n2)cc1	4.09	7.84 µM	3.92	7.74 µM	3.47 µM	6.76 µM	3.93	8.33 µM	3.78	7.5 µM	4.68	8.95 µM	3.92	8.46	4.1	7.67 µM	3.94	7.71 µM	4.2	7.92 µM
COc1ccc(C2C3=C(COC3=O)N(CCO)c3cc4c(cc32)CCC4)cc1OC (configuration not stated)	1.13	> 50 µM	0.858	> 50 µM	0.524 µM	> 50 µM	0.328	> 10.5 µM	0.274	> 42.7 µM	0.291	> 50 µM	0.132	0.448	3.59	> 50 µM	1.78	> 50 µM	0.496	6.43 µM
O=C1c2ccccc2-c2c1c1ccccc1c(=O)n2CCCNCCO	0.267	12.8 µM	0.438	3.34 µM	0.298 µM	3.53 µM	0.175	0.88 µM	0.501	3.76 µM	0.511	1.93 µM	0.895	4.92	1.05	7.27 µM	0.796	8.85 µM	0.578	2.96 µM
CCN(CC)c1ccc(/C=C2/NC(=O)NC2=O)cc1	9.9	> 100 µM	6.19	> 100 µM	3.65 µM	> 100 µM	4.9	> 100 µM	4.82	> 27.6 µM	16	> 100 µM	0.42	3.53	10.5	> 100 µM	4.39	> 35.8 µM	5.57	53.6 µM
O=C(Nc1ccc(I)cc1F)c1cc(F)ccc1O	2.24	> 100 µM	0.342	2.86 µM	0.352 µM	1.46 µM	0.382	1.93 µM	0.404	> 100 µM	0.315	1.53 µM	0.512	4.45	4.04	> 100 µM	0.513	> 31.1 µM	0.444	7.07 µM
CN1CCN(Cc2ccc(NC(=O)c3cncc(C#Cc4cncc5[nH]ncc45)c3)cc2C(F)(F)F)CC1	1.67	6.79 µM	0.79	2.6 µM	0.215 µM	2.34 µM	0.249	1.38 µM	0.454	1.45 µM	0.0987	0.383 µM	0.556	5.33	0.601	5.96 µM	0.899	3.96 µM	0.411	1.28 µM
CC(=O)O[C@H]1Cc2c([nH]c3ccccc23)[C@@H](c2ccc(Cl)cc2)N1C(=O)CCNC(C)(C)C	5.19	10.1 µM	2.77	7.01 µM	1.64 µM	6.32 µM	2.51	11.7 µM	2.19	7.77 µM	4.26	8.96 µM	4.68	9.06	4.24	8.54 µM	4.21	9.24 µM	4.69	9.12 µM
COC(=O)C1=C(C)NC(C)=C(C(=O)OC)C1c1ccccc1[N+](=O)[O-]	> 100	> 100 µM	38.8	> 100 µM	> 100 µM	> 100 µM	31.7	> 100 µM	57.2	> 100 µM	> 100	> 100 µM	> 100	> 100	> 100	> 100 µM	> 100	> 100 µM	> 100	> 100 µM
CCn1c(-c2nonc2N)nc2c(C#CC(C)(C)O)ncc(OCC3CCNCC3)c21	10.7	> 25 µM	17.2	> 25 µM	6.67 µM	> 20.9 µM	6.63	17.2 µM	1.34	> 25 µM	> 25	> 25 µM	13.7	> 25	> 25	> 25 µM	9.41	> 25 µM	3.36	> 20.7 µM
